From patent US20260174858A1, “TARGETING THE m6A MRNA DEMETHYLASE FTO” (University of Virginia Patent Foundation, priority 2022, published 2026)

Columns and labels:
[1] = tested on: Wild type C57BL/6J mice; assay: LPS model of septic shock, survival; type: in vivo, mouse; details: FTOi 20 mg/kg i.p. 16 hours before, 10 mg/kg LPS challenge; log-rank p<0.05 vs vehicle
Protocol: To induced septic shock model, male or female C57BL/6 mice (6 to 10 weeks old) were primed with 10 mg/kg poly(I:C) via intraperitoneal injection. 6 hours later, primed mice were injected with 10 mg/kg LPS and monitored three time daily for a total 5 days. For FTO inhibitor treatment, Wild type C57BL/6J mice were pretreated with 20 mg/kg FB23-2 for 16 hours before sepsis induction. Next day, 20 mg/kg FB23-2 together with 10 mg/kg poly(I:C) were intraperitoneally injected, following with LPS challenge at 6 hours after poly(I:C) priming.

[2] = tested on: mouse BMDMs; assay: VEGFA release in mouse BMDMs (ELISA); type: cell-based; details: FTOi 20 uM 12 hours, with or without LPS 250 ng/ml 6 hours, supernatant ELISA
Protocol: Primary WT or mutant mouse bone marrow derived macrophages (BMDMs) were isolated as previously described (4). BMDMs were cultured in IMDM (Gibco) basal medium containing 10% fetal bovine serum (FBS), 30% L929 supernatants, nonessential amino acids, sodium pyruvate, 2-mercaptoethanol, and antibiotics. THP-1 cells were cultured in RPMI 1640 medium with 10% FBS and antibiotics. Human RPE cells were isolated as previously described and cultured in DMEM medium with 10% FBS and antibiotics. All cells were maintained at 37° C. in a 5% CO2 environment.
The RPE-choroid complex was isolated from mouse eyes on day 3 after laser injury and treatment with FTO inhibitor or vehicle. Eye tissues were lysed by sonication with immunoprecipitation assay (RIPA) buffer (Sigma-Aldrich, R0278, USA) containing protease inhibitor (Sigma-Aldrich, 11836170001, USA), on ice for 15 minutes. The lysate was centrifuged at 20,000×g for 15 minutes at 4° C., and total protein in the lysates was quantified using the Thermo Scientific™ Pierce™ BCA™ Protein Assay (Fisher Scientific, PI23225, USA). VEGFA protein levels in the supernatants were measured by VEGF DuoSet ELISA (R&D Systems, DY493, USA), following the manufacturer's instructions. Mouse BMDMs or human THP-1 cells (5×10^5 cells per well) were plated into six-well plates in complete medium and allowed to adhere overnight. Cells were then incubated for 24 hours in the absence or presence of various doses of FTO inhibitor or METTL3 inhibitors (STM2457, Selleck Chemicals). […] The siRNAs (siFto: 5′-P.G.A.G.G.A.U.C.C.A.A.G.G.C.A.A.A.G.A.U.dT.dT 3′ (SEQ ID NO: 38); siCtrl: 5′-P.U.A.A.G.G.C.U.A.U.G.A.A.G.A.G.A.U.dT.dT 3′; SEQ ID NO: 39), were designed and synthesized by GE Healthcare Dharmacon, were transfected twice with BMDMs by using DharmaFECT 4 Transfection Reagent (Dharmacon, T-2004, USA). VEGFA levels in the supernatants were measured by mouse or human VEGF DuoSet ELISA (R&D Systems, DY493 or DY293B, USA), following the manufacturer's instructions.

[3] = tested on: Vegfa mRNA; assay: MeRIP-qPCR of m6A methylated Vegfa mRNA in BMDMs; type: cell-based, mouse; details: BMDMs treated with FTOi vs DMSO, MeRIP and qPCR
Protocol: To validate m6A methylation of Vegfa mRNA and perturbations induced by FTOi treatment, we performed MeRIP-qPCR by following the EpiMark® N6-Methyladenosine Enrichment Kit protocol (New England Biolabs, E1610S, USA). Briefly, total RNA was extracted from mouse BMDMs treated with 5 μM of FTO inhibitor or vehicle for 24 hours by using TRIzol™ Reagent (Thermo Fisher Scientific, 15596018, USA). 100 μg of total RNA from each group was mixed with unmodified RNA (Negative control, NC). Next, 20 μg of these mixtures was incubated with m6A antibody (Cell Signaling Technology, D9D9W, USA) and then pulled down using Pierce™ Protein A/G Magnetic Beads (Thermo Fisher Scientific, 88802, USA) overnight. The enriched m6A positive RNAs were then eluted and purified by NucleoSpin RNA Clean-Up (Macherey-Nagel, 740948.25, USA), and the amounts of m6A-modified Vegfa mRNA or negative control RNAs were determined by reverse transcription and qPCR.

[4] = tested on: Human RPE cell line, ARPE-19; assay: TGF-β1-induced fibrotic response in ARPE-19 (immunoblotting, immunofluorescence); type: cell-based; details: FTOi pretreatment at indicated concentrations, TGF-β1 10 ng/ml 12 hours
Protocol: Cells and tissues were homogenized in RIPA buffer (R0278, Sigma) with protease and phosphatase inhibitors (A32959, Thermo Scientific). Protein concentration was determined with a Pierce BCA Protein Assay Kit (23225, Thermo Scientific). Equal quantities of protein boiled in LDS Sample Buffer (NP0007, Thermo Scientific) were resolved by Novex Tris-glycine gels (Invitrogen) and transferred onto LF PVDF membranes (1704274, Bio-Rad). The transferred membranes were blocked with Blocking Buffer (927-40000, LI-COR) and incubated with the following primary antibodies: anti-FTO pAb (AdipoGen Life Sciences, AG-25A-0089-C100, USA), anti-GAPDH mAb (Cell Signaling Technology, 97166), anti-F4/80 (Santa Cruz Biotechnology, sc-25830). The signal was visualized with species-specific secondary antibodies conjugated with IRDye and Odyssey® CLx Imaging System.

SMILES: Cc1noc(C)c1-c1cc(Cl)c(Nc2ccccc2C(=O)NO)c(Cl)c1 [FB23-2]
- Survival (mice death) [1]: rescues the mice death
- VEGFA release [2]: inhibits VEGFA release
- VEGFA release ([2]; listed as FTO inhibitor): reduction in mouse VEGFA release
- Level of m6A methylated Vegfa mRNA [3]: increase the level of methylated (m6A) VEGFA mRNA
- Level of m6A methylated Vegfa mRNA ([3]; listed as FTO inhibitor): significantly increased the abundance of m6A methylated Vegfa mRNA
- Fibrotic response (αSMA, fibronectin) [4]: suppress the fibrotic response
